Test results from PubChem BioAssay AID2060490 (Molecular Pharmacology Branch, DTP, NCI, 2025).

System: 885512-296-R-J2-PDC complex spheroid viability
Assay: Anticancer human tumor 885512-296-R-J2-PDC patient-derived breast carcinoma cell line growth inhibition [GQUAD]
Details: for IC50: curve of first compound; for viability, T/C: stronger effect = lower value
Method in brief: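 Multi-cell-type spheroids of tumor cells with HUVEC and mesenchymal stem cells, treated with drug combinations. Concentrations descend in half-log steps from near clinical Cmax, or from 10 microM where Cmax is unknown; viability read-out.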

[1] = second compound 0.0316 µM, first compound 0.000999 µM
[2] = second compound 0.0316 µM, first compound 0.00316 µM
[3] = second compound 0.0316 µM, first compound 0.00999 µM
[4] = second compound 0.0316 µM, first compound 0.0316 µM
[5] = second compound 0.0316 µM, first compound 0.0999 µM
[6] = second compound 0.0316 µM, first compound 0.316 µM
[7] = second compound 0.1 µM, first compound 0.000999 µM
[8] = second compound 0.1 µM, first compound 0.00316 µM
[9] = second compound 0.1 µM, first compound 0.00999 µM
[10] = second compound 0.1 µM, first compound 0.0316 µM
[11] = second compound 0.1 µM, first compound 0.0999 µM
[12] = second compound 0.1 µM, first compound 0.316 µM
[13] = second compound 0.316 µM, first compound 0.000999 µM
[14] = second compound 0.316 µM, first compound 0.00316 µM
[15] = second compound 0.316 µM, first compound 0.00999 µM
[16] = second compound 0.316 µM, first compound 0.0316 µM
[17] = second compound 0.316 µM, first compound 0.0999 µM
[18] = second compound 0.316 µM, first compound 0.316 µM
[19] = second compound 1 µM, first compound 0.000999 µM
[20] = second compound 1 µM, first compound 0.00316 µM
[21] = second compound 1 µM, first compound 0.00999 µM
[22] = second compound 1 µM, first compound 0.0316 µM
[23] = second compound 1 µM, first compound 0.0999 µM
[24] = second compound 1 µM, first compound 0.316 µM
[25] = second compound 3.16 µM, first compound 0.000999 µM
[26] = second compound 3.16 µM, first compound 0.00316 µM
[27] = second compound 3.16 µM, first compound 0.00999 µM
[28] = second compound 3.16 µM, first compound 0.0316 µM
[29] = second compound 3.16 µM, first compound 0.0999 µM
[30] = second compound 3.16 µM, first compound 0.316 µM
[31] = second compound 10 µM, first compound 0.000999 µM
[32] = second compound 10 µM, first compound 0.00316 µM
[33] = second compound 10 µM, first compound 0.00999 µM
[34] = second compound 10 µM, first compound 0.0316 µM
[35] = second compound 10 µM, first compound 0.0999 µM
[36] = second compound 10 µM, first compound 0.316 µM
[37] = second compound 0.0316 µM, first compound 0.1 µM
[38] = second compound 0.0316 µM, first compound 1 µM
[39] = second compound 0.0316 µM, first compound 3.16 µM
[40] = second compound 0.0316 µM, first compound 10 µM
[41] = second compound 0.1 µM, first compound 0.1 µM
[42] = second compound 0.1 µM, first compound 1 µM
[43] = second compound 0.1 µM, first compound 3.16 µM
[44] = second compound 0.1 µM, first compound 10 µM
[45] = second compound 0.316 µM, first compound 0.1 µM
[46] = second compound 0.316 µM, first compound 1 µM
[47] = second compound 0.316 µM, first compound 3.16 µM
[48] = second compound 0.316 µM, first compound 10 µM
[49] = second compound 1 µM, first compound 0.1 µM
[50] = second compound 1 µM, first compound 1 µM
[51] = second compound 1 µM, first compound 3.16 µM
[52] = second compound 1 µM, first compound 10 µM
[53] = second compound 3.16 µM, first compound 0.1 µM
[54] = second compound 3.16 µM, first compound 1 µM
[55] = second compound 3.16 µM, first compound 3.16 µM
[56] = second compound 3.16 µM, first compound 10 µM
[57] = second compound 10 µM, first compound 0.1 µM
[58] = second compound 10 µM, first compound 1 µM
[59] = second compound 10 µM, first compound 3.16 µM
[60] = second compound 10 µM, first compound 10 µM
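Also: spheroids exposed to the compounds for one week.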
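For viability, T/C in this document: percent of tumor spheroid viability relative to DMSO vehicle control wells.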

Cn1ncnc1[C@H]1c2n[nH]c(=O)c3cc(F)cc(c23)N[C@@H]1c1ccc(F)cc1 + Cc1[nH]c2ccc(F)cc2c1-c1nc2c3cccnc3c3ncccc3c2[nH]1 was tested, and the IC50 (second compound 0.0316 µM) was 277 nM, the IC50 (second compound 0.1 µM) was 234 nM and the IC50 (second compound 0.316 µM) was 220 nM. The IC50 (second compound 1 µM) was 106 nM, the IC50 (second compound 3.16 µM) was less than 0.999 nM and the IC50 (second compound 10 µM) was less than 0.999 nM. For the same molecule, the viability, T/C [1] was 108%, the viability, T/C [2] was 84.1% and the viability, T/C [3] was 89.5%. For the same molecule, the viability, T/C [4] was 86.8%, the viability, T/C [5] was 66.4% and the viability, T/C [6] was 46.8%. The viability, T/C [7] was 104%, the viability, T/C [8] was 101% and the viability, T/C [9] was 93.9%. For the same molecule, the viability, T/C [10] was 75.4%, the viability, T/C [11] was 76.2% and the viability, T/C [12] was 41.1%. For the same molecule, the viability, T/C [13] was 90.8%, the viability, T/C [14] was 82.9% and the viability, T/C [15] was 82.1%. For the same molecule, the viability, T/C [16] was 77.3%, the viability, T/C [17] was 67% and the viability, T/C [18] was 42.1%. The viability, T/C [19] was 70.8%, the viability, T/C [20] was 79.3% and the viability, T/C [21] was 67.6%. The viability, T/C [22] was 57.7%, the viability, T/C [23] was 53.6% and the viability, T/C [24] was 34.6%. For the same molecule, the viability, T/C [25] was 25.6%, the viability, T/C [26] was 23.2% and the viability, T/C [27] was 17.1%. For the same molecule, the viability, T/C [28] was 15.6%, the viability, T/C [29] was 13.8% and the viability, T/C [30] was 7.86%. For the same molecule, the viability, T/C [31] was 3.25%, the viability, T/C [32] was 3.75% and the viability, T/C [33] was 8.84%. For the same molecule, the viability, T/C [34] was 2.56%, the viability, T/C [35] was 2.53% and the viability, T/C [36] was 2.11%.

With O=c1[nH]cc(F)c(=O)[nH]1 + CN(C)c1ccc(Nc2c3ccc(NC(=O)CCN4CCCC4)cc3nc3cc(NC(=O)CCN4CCCC4)ccc23)cc1 the IC50 (second compound 0.0316 µM) was greater than 10000 nM, the IC50 (second compound 0.1 µM) was greater than 10000 nM and the IC50 (second compound 0.316 µM) was greater than 10000 nM. It also gave an IC50 (second compound 1 µM) greater than 10000 nM, an IC50 (second compound 3.16 µM) greater than 10000 nM and an IC50 (second compound 10 µM) of less than 31.6 nM. For the same molecule, the viability, T/C [4] was 100%, the viability, T/C [37] was 92.7% and the viability, T/C [6] was 91.6%. The viability, T/C [38] was 98.8%, the viability, T/C [39] was 58.7% and the viability, T/C [40] was 64.3%. The viability, T/C [10] was 101%, the viability, T/C [41] was 108% and the viability, T/C [12] was 117%. For the same molecule, the viability, T/C [42] was 96.4%, the viability, T/C [43] was 59.5% and the viability, T/C [44] was 60.1%. It also gave a viability, T/C [16] of 105%, a viability, T/C [45] of 98.7% and a viability, T/C [18] of 120%. It also gave a viability, T/C [46] of 102%, a viability, T/C [47] of 62.3% and a viability, T/C [48] of 60%. For the same molecule, the viability, T/C [22] was 96.4%, the viability, T/C [49] was 102% and the viability, T/C [24] was 97.5%. It also gave a viability, T/C [50] of 84%, a viability, T/C [51] of 55.8% and a viability, T/C [52] of 58.4%. It also gave a viability, T/C [28] of 90.9%, a viability, T/C [53] of 96.9% and a viability, T/C [30] of 104%. The viability, T/C [54] was 77.9%, the viability, T/C [55] was 64.3% and the viability, T/C [56] was 59.1%. It also gave a viability, T/C [34] of 24.8%, a viability, T/C [57] of 20.1% and a viability, T/C [36] of 19.2%. It also gave a viability, T/C [58] of 25.5%, a viability, T/C [59] of 23.2% and a viability, T/C [60] of 18%.

Cc1[nH]c2ccccc2c1CCNCc1ccc(/C=C/C(=O)NO)cc1 + Cc1[nH]c2ccc(F)cc2c1-c1nc2c3cccnc3c3ncccc3c2[nH]1 gave an IC50 (second compound 0.0316 µM) greater than 316 nM, an IC50 (second compound 0.1 µM) greater than 316 nM and an IC50 (second compound 0.316 µM) greater than 316 nM. The IC50 (second compound 1 µM) was greater than 316 nM, the IC50 (second compound 3.16 µM) was less than 0.999 nM and the IC50 (second compound 10 µM) was less than 0.999 nM. It also gave a viability, T/C [1] of 99.3%, a viability, T/C [2] of 114% and a viability, T/C [3] of 97.1%. For the same molecule, the viability, T/C [4] was 94.9%, the viability, T/C [5] was 100% and the viability, T/C [6] was 78.2%. For the same molecule, the viability, T/C [7] was 99.7%, the viability, T/C [8] was 97.1% and the viability, T/C [9] was 94.7%. The viability, T/C [10] was 92.1%, the viability, T/C [11] was 103% and the viability, T/C [12] was 82.4%. The viability, T/C [13] was 92.5%, the viability, T/C [14] was 88.4% and the viability, T/C [15] was 90.2%. The viability, T/C [16] was 87.3%, the viability, T/C [17] was 85.7% and the viability, T/C [18] was 69.5%. It also gave a viability, T/C [19] of 75.9%, a viability, T/C [20] of 53.9% and a viability, T/C [21] of 62.3%. For the same molecule, the viability, T/C [22] was 65.9%, the viability, T/C [23] was 53.7% and the viability, T/C [24] was 56.4%. For the same molecule, the viability, T/C [25] was 5.78%, the viability, T/C [26] was 9.7% and the viability, T/C [27] was 7.26%. It also gave a viability, T/C [28] of 6.61%, a viability, T/C [29] of 5.06% and a viability, T/C [30] of 4.88%. For the same molecule, the viability, T/C [31] was 1.15%, the viability, T/C [32] was 1.37% and the viability, T/C [33] was 1.33%. For the same molecule, the viability, T/C [34] was 2.33%, the viability, T/C [35] was 1.05% and the viability, T/C [36] was 1.69%.

C#Cc1c(F)ccc2cc(O)cc(-c3ncc4c(N5CC6CCC(C5)N6)nc(OCC56CCCN5CC(F)C6)nc4c3F)c12 (stereo not drawn) + Cc1[nH]c2ccc(F)cc2c1-c1nc2c3cccnc3c3ncccc3c2[nH]1 was tested, and the IC50 (second compound 0.0316 µM) was 1600 nM, the IC50 (second compound 0.1 µM) was 1450 nM and the IC50 (second compound 0.316 µM) was 1450 nM. The IC50 (second compound 1 µM) was 393 nM, the IC50 (second compound 3.16 µM) was less than 31.6 nM and the IC50 (second compound 10 µM) was less than 31.6 nM. For the same molecule, the viability, T/C [4] was 109%, the viability, T/C [37] was 92.7% and the viability, T/C [6] was 94.5%. It also gave a viability, T/C [38] of 73.4%, a viability, T/C [39] of 13.6% and a viability, T/C [40] of 18.1%. The viability, T/C [10] was 103%, the viability, T/C [41] was 90.8% and the viability, T/C [12] was 95%. For the same molecule, the viability, T/C [42] was 67.7%, the viability, T/C [43] was 8.04% and the viability, T/C [44] was 17.1%. It also gave a viability, T/C [16] of 88.6%, a viability, T/C [45] of 87.4% and a viability, T/C [18] of 82.3%. It also gave a viability, T/C [46] of 67.5%, a viability, T/C [47] of 10.2% and a viability, T/C [48] of 16.4%. For the same molecule, the viability, T/C [22] was 52.9%, the viability, T/C [49] was 52.9% and the viability, T/C [24] was 54.3%. For the same molecule, the viability, T/C [50] was 35.6%, the viability, T/C [51] was 1.25% and the viability, T/C [52] was 1.01%. For the same molecule, the viability, T/C [28] was 2.98%, the viability, T/C [53] was 2.55% and the viability, T/C [30] was 4.13%. It also gave a viability, T/C [54] of 1.7%, a viability, T/C [55] of 0.26% and a viability, T/C [56] of 0.33%. For the same molecule, the viability, T/C [34] was 1.35%, the viability, T/C [57] was 1.38% and the viability, T/C [36] was 1.82%. It also gave a viability, T/C [58] of 1.42%, a viability, T/C [59] of 0.24% and a viability, T/C [60] of 0.41%.
